Tested on: Propionibacterium acnes (ATCC #6919)
Assay: In vitro reduction of P. acnes population (plate counts after timed exposure)
Assay type: cell-based
Protocol: In vitro experiments show the effectiveness of a composition comprising salicylic acid and anti-P. acnes immunoglobulin at reducing a specific microorganism population.
The microorganism of interest in the described experiments was Propionibacterium acnes. A stock suspension of P. acnes was prepared by inoculating a sample of P. acnes (ATCC #6919) in Reinforced Clostria broth at 36±1° C. for 5 days anaerobically. This stock suspension was divided into four equal batches. The first batch served as a no treatment control group. The second batch was treated with 2% salicylic acid. The third batch was treated with 3 ppm anti-P. acnes IgY at 95% purity. The fourth batch was treated with 2% salicylic acid and 3 ppm anti-P. acnes IgY at 95% purity. At time intervals 30 seconds, 1 minute, 5 minutes, 12 hours, and 24 hours, 1.0 ml from the inoculated control and test batches was taken and placed into 9.0 ml of neutralizing broth (1:10 dilution). Additional dilutions were made using neutralizing broth to achieve 1:100, 1:1000 and 1:10,000 dilutions. One milliliter from each dilution was plated into TSA+5% sheep blood. The plates were incubated at 36±1° C. for 5 days anaerobically. After the incubation period, all plates were counted to determine the number of microorganism at each time point.

O=C(O)c1ccccc1O [2% SA, salicylic acid (o-hydroxybenzoic acid)]
number of microorganism (Exposure Time 30 sec.): 7.20E+05
number of microorganism (Exposure Time 12 hours): <10
number of microorganism (Exposure Time 24 hours): <10
number of microorganism (Exposure Time Initial, P. acnes stock suspension): 8.20E+05
time after which a 99% kill rate was reached (used alone): 12 h
reduction of the concentration of P. acnes (within the first 30 seconds): about 12%

Source: patent publication US20140271670A1, “COMPOSITIONS FOR TREATING SKIN DISORDERS” (priority 2013, published 2014)
